Eight compounds from ChEMBL document CHEMBL5042477, “Potent Cyclic Peptide Inhibitors of FXIIa Discovered by mRNA Display with Genetic Code Reprogramming” (J Med Chem, 2021) can be followed below.

Assay [1] addresses T1, Coagulation factor XII (Homo sapiens, UniProt P00748).
T1 sequence (P00748 whole entry): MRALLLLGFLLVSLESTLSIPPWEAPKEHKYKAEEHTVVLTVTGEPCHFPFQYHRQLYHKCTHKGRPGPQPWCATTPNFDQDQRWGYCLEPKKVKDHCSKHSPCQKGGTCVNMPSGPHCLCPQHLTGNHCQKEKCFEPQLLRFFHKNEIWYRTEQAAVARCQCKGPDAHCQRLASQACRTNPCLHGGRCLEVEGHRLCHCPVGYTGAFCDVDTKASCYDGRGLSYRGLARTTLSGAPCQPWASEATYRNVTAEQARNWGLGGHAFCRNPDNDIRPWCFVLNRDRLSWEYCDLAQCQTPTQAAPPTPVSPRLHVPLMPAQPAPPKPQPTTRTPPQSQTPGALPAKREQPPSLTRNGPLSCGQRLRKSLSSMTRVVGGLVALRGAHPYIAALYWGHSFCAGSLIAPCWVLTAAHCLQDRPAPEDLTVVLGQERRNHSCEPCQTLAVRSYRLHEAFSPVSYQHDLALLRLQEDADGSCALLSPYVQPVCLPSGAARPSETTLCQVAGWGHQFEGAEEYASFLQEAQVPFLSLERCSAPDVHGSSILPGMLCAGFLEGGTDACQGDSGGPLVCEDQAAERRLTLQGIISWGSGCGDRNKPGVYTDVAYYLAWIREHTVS
In words: Inhibition of human factor 12a using H-D-Pro-Phe-Arg-p-nitroanilide as chromogenic substrate assessed as liberation of p-nitroaniline measured every 5 mins for 60 min by multimode plate reader analysis.

The target of assay [2] is T1, Coagulation factor XII. As to the kind of experiment: Inhibition of human factor 12a using H-D-Pro-Phe-Arg-p-nitroanilide as chromogenic substrate assessed as liberation of p-nitroaniline in presence of BSA measured every 5 mins for 60 min by multimode plate reader analysis.
A further assay concerns the target Coagulation factor X (Homo sapiens, UniProt P00742). In words: Inhibition of human factor 10a using methoxycarbonyl-D-Nle-Gly-Arg-pNA as substrate measured after 60 mins by microplate reader analysis.

Where a SMILES comes first, the peptide text is derived from it. Bridges are numbered along the chain shown (N, C = ends). [ ]: non-standard residue; d: D form. Tyr(3-NO2) = N[C@@H](Cc1ccc(O)c([N+](=O)[O-])c1)C(=O)O; Tyr(3-F) = N[C@@H](Cc1ccc(O)c(F)c1)C(=O)O; Phe(4-F) = N[C@@H](Cc1ccc(F)cc1)C(=O)O; hTyr = N[C@@H](CCc1ccc(O)cc1)C(=O)O; hPhe = N[C@@H](CCc1ccccc1)C(=O)O Some results are limits rather than exact numbers.

Sequence of Coagulation factor X (P00742 41-179 limits assumed): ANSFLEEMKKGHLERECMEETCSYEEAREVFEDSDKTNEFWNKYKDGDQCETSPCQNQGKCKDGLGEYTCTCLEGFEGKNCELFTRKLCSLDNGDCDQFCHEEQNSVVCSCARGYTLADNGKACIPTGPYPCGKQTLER
Sequence of Coagulation factor X (P00742 235-488 limits assumed): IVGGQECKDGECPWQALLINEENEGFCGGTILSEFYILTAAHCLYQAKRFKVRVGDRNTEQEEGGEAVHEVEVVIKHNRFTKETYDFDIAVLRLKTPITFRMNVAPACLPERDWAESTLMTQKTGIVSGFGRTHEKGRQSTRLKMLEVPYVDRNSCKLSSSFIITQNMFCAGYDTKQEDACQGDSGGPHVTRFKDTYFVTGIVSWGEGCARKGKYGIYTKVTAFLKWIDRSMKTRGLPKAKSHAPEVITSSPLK

A word on the IC50: it is the concentration that inhibits the measured activity by half. As for `CC(C)C[C@@H]1NC(=O)[C@H](CCC(N)=O)NC(=O)[C@H](CCCNC(=N)N)NC(=O)[C@@H]2CSCCC(=O)N3CN(CN(C3)C(=O)CCSC[C@H](NC(=O)[C@@H](N)CCCNC(=N)N)C(=O)N[C@@H](Cc3ccccc3)C(=O)N[C@@H](CCCNC(=N)N)C(=O)N[C@@H](CC(C)C)C(=O)N3CCC[C@H]3C(=O)N2)C(=O)CCSC[C@@H](C(=O)N[C@@H](CCCNC(=N)N)C(=O)O)NC(=O)[C@H](CCCNC(=N)N)NC1=O`, the 50% inhibitory concentration (IC50) came out at 0.142 µM at Coagulation factor XII [1] and 0.173 µM at Coagulation factor XII [2]. Take `CC[C@H](C)[C@@H]1NC(=O)[C@H](CC(C)C)NC(=O)[C@H](Cc2ccc(O)cc2)NC(=O)CSC[C@@H](C(=O)N[C@H](C(=O)N[C@@H](CO)C(=O)N[C@@H](CCCNC(=N)N)C(=O)N[C@@H](CCCNC(=N)N)C(=O)N[C@@H](C)C(=O)N[C@@H](Cc2ccccc2)C(=O)N[C@@H](Cc2ccccc2)C(=O)N[C@H](C(=O)N[C@@H](CC(=O)O)C(=O)N[C@@H](CCC(N)=O)C(=O)N[C@@H](CO)C(N)=O)[C@@H](C)O)C(C)C)NC1=O` ({CH2CO}-YLICVSRRAFFTDQS-NH2; thioether N-4): the half-inhibitory concentration (IC50) on Coagulation factor XII [1] and against Coagulation factor X was over 100 µM throughout. With `CC[C@H](C)[C@@H]1NC(=O)[C@H](C)NC(=O)[C@H](CCCCN)NC(=O)[C@H](Cc2ccccc2)NC(=O)[C@H](CCCNC(=N)N)NC(=O)[C@H](CC(C)C)NC(=O)[C@H](Cc2ccc(O)cc2)NC(=O)CSC[C@@H](C(N)=O)NC(=O)CNC(=O)CNC(=O)[C@H](CC(C)C)NC(=O)[C@H](CO)NC1=O` ({CH2CO}-YLRFKAISLGGC-NH2; thioether N-12), the IC50 stood at 0.18 µM on Coagulation factor XII [1] and 41 µM against Coagulation factor X. For `CC(C)C[C@@H]1NC(=O)[C@H](Cc2ccc(F)cc2)NC(=O)CSC[C@@H](C(N)=O)NC(=O)CNC(=O)CNC(=O)[C@H](CCCNC(=N)N)NC(=O)[C@H](CC(=O)O)NC(=O)[C@H](CCCCN)NC(=O)[C@@H]2CCCN2C(=O)[C@H](CCCNC(=N)N)NC(=O)[C@H](Cc2ccccc2)NC(=O)[C@H](CCCNC(=N)N)NC1=O` ({CH2CO}-[Phe(4-F)]LRFRPKDRGGC-NH2; thioether N-12), the IC50 at Coagulation factor XII [1] stood at 0.47 µM.

Regarding `CC(C)C[C@@H]1NC(=O)[C@H](Cc2ccc(O)c(F)c2)NC(=O)CSC[C@@H](C(N)=O)NC(=O)CNC(=O)CNC(=O)[C@H](CCCNC(=N)N)NC(=O)[C@H](CC(=O)O)NC(=O)[C@H](CCCCN)NC(=O)[C@@H]2CCCN2C(=O)[C@H](CCCNC(=N)N)NC(=O)[C@H](Cc2ccccc2)NC(=O)[C@H](CCCNC(=N)N)NC1=O` ({CH2CO}-[Tyr(3-F)]LRFRPKDRGGC-NH2; thioether N-12), at Coagulation factor XII [1], the 50% inhibitory concentration (IC50) worked out at 0.15 µM. Still for that read-out and setting: under `CC(C)C[C@@H]1NC(=O)[C@H](Cc2ccc(O)c([N+](=O)[O-])c2)NC(=O)CSC[C@@H](C(N)=O)NC(=O)CNC(=O)CNC(=O)[C@H](CCCNC(=N)N)NC(=O)[C@H](CC(=O)O)NC(=O)[C@H](CCCCN)NC(=O)[C@@H]2CCCN2C(=O)[C@H](CCCNC(=N)N)NC(=O)[C@H](Cc2ccccc2)NC(=O)[C@H](CCCNC(=N)N)NC1=O` ({CH2CO}-[Tyr(3-NO2)]LRFRPKDRGGC-NH2; thioether N-12) stands 90 µM. The same measure, in the same setting: the value for `CC(C)C[C@@H]1NC(=O)[C@H](CCc2ccccc2)NC(=O)CSC[C@@H](C(N)=O)NC(=O)CNC(=O)CNC(=O)[C@H](CCCNC(=N)N)NC(=O)[C@H](CC(=O)O)NC(=O)[C@H](CCCCN)NC(=O)[C@@H]2CCCN2C(=O)[C@H](CCCNC(=N)N)NC(=O)[C@H](Cc2ccccc2)NC(=O)[C@H](CCCNC(=N)N)NC1=O` ({CH2CO}-[hPhe]LRFRPKDRGGC-NH2; thioether N-12) was 410 µM.

Consider `CC(C)C[C@@H]1NC(=O)[C@H](CCc2ccc(O)cc2)NC(=O)CSC[C@@H](C(N)=O)NC(=O)CNC(=O)CNC(=O)[C@H](CCCNC(=N)N)NC(=O)[C@H](CC(=O)O)NC(=O)[C@H](CCCCN)NC(=O)[C@@H]2CCCN2C(=O)[C@H](CCCNC(=N)N)NC(=O)[C@H](Cc2ccccc2)NC(=O)[C@H](CCCNC(=N)N)NC1=O` ({CH2CO}-[hTyr]LRFRPKDRGGC-NH2; thioether N-12), for which, at Coagulation factor XII [1], the concentration for half-maximal inhibition (IC50) came to 370 µM.
